In general, GI50 refers to the concentration at which growth is held to half of that of the control. A lower GI50 goes with greater sensitivity of the cells. The term ED50 denotes the dose at which the effect has come halfway, by size or by number of responders. Higher therefore signals weaker potency.

≈ marks a conversion by molar mass, not a printed value.

Data on two compounds can be found in ChEMBL document CHEMBL1146649, “New highly active taxoids from 9 beta-dihydrobaccatin-9,10-acetals. Part 5” (2004).

The test system of experiment [1] is Mus musculus. The experiment is described as follows: Number of mice died at 7.8 mg/kg of intravenous dose of compound among the total 6 mice tested. The format is functional.
Experiment [2] has as its system B16. The experiment is described as follows: Antitumor activity of 11.9 mg/kg of intravenously administered compound against B16 melanoma BL6 cells implanted into mice, value reported is percent compared to control. The format is functional, Mus musculus. To be noted: route intravenous.
Experiment [3] relates to Mus musculus. The experiment is described as follows: Maximum rate of body weight loss after peroral administration of 11.9 mg/kg of compound in mice. The format is functional. To be noted: route oral.
Experiment [4] has as its system Mus musculus. Briefly: Antitumor activity of 7.9 mg/kg of perorally administered compound against B16 melanoma BL6 cells implanted into mice, value reported is percent compared to control. To be noted: route oral. The format is functional.
Experiment [5] deals with PC-6. Briefly: Concentration required to inhibit human PC-6/VCR29-9 cell line growth by 50% at 72 hr exposure. The format is functional. To be noted: PC-6, 72 h.
For experiment [6], the system named is PC-6. The experiment is described as follows: Concentration required to inhibit human PC-6 cell line growth by 50% at 72 hr continuous exposure. The format is functional. To be noted: PC-6, 72 h.
The test system of experiment [7] is Mus musculus. Briefly: Maximum rate of body weight loss after intravenous administration of 7.8 mg/kg of compound in mice. The format is functional.
For experiment [8], the system named is Mus musculus. The experiment is described as follows: Number of mice died at 5.3 mg/kg of intravenous dose of compound among the total 6 mice tested. The format is functional.
Experiment [9] relates to PC-6. Briefly: Concentration required to inhibit human PC-6/VP1-1 cell line growth by 50% at 72 hr exposure. The format is functional. To be noted: PC-6, 72 h.
For experiment [10], the system named is Mus musculus. The experiment is described as follows: Antitumor activity of 5.3 mg/kg of intravenously administered compound against B16 melanoma BL6 cells implanted into mice, value reported is percent compared to control. The format is functional. As to conditions: route intravenous.
The test system of experiment [11] is Mus musculus. Briefly: Number of mice died at 26.7 mg/kg of peroral dose of compound among the total 6 mice tested. The format is functional. As to conditions: route oral.
The test system of experiment [12] is Mus musculus. The experiment is described as follows: Antitumor activity of 7.8 mg/kg of intravenously administered compound against B16 melanoma BL6 cells implanted into mice, value reported is percent compared to control. The format is functional. To be noted: route intravenous.
In experiment [13] the test system is Mus musculus. Briefly: Number of mice died at 11.9 mg/kg of intravenous dose, among the total 6 mice tested. The format is functional.
For experiment [14], the system named is B16. Briefly: Antitumor activity of 11.9 mg/kg of perorally administered compound against B16 melanoma BL6 cells implanted into mice, value reported is percent compared to control. The format is functional, Mus musculus. To be noted: route oral.
Experiment [15] deals with Mus musculus. The experiment is described as follows: Effective dose of perorally administered compound against B16 melanoma BL6 cells implanted into mice; range is 11.9-17.8. As to conditions: B16, po. The format is functional.
Experiment [16] relates to Mus musculus. The experiment is described as follows: Number of mice died at 11.9 mg/kg of peroral dose, among the total 6 mice tested. The format is functional. To be noted: route oral.
In experiment [17] the test system is Mus musculus. The experiment is described as follows: Maximum rate of body weight loss after peroral administration of 7.9 mg/kg of compound in mice; <0 indicates no weight loss. The format is functional. As to conditions: route oral.
The test system of a further experiment is PC-12. The experiment is described as follows: Concentration required to inhibit human PC-12 cell line growth by 50% at 72 hr continuous exposure. The format is functional. As to conditions: PC-12, 72 h.
The test system of experiment [18] is B16. The experiment is described as follows: Antitumor activity of 17.8 mg/kg of perorally administered compound against B16 melanoma BL6 cells implanted into mice, value reported is percent compared to control. To be noted: route oral. The format is functional, Mus musculus.
The subject of the next experiment is P388. The experiment is described as follows: Concentration required to inhibit mouse P388 cell line growth by 50% at 72 hr continuous exposure. The format is functional. To be noted: P388, 72 h.
Experiment [19] deals with Mus musculus. The experiment is described as follows: Effective dose of intravenously administered compound against B16 melanoma BL6 cells implanted into mice; range is 7.8-11.9. As to conditions: B16, iv. The format is functional.
The subject of experiment [20] is Mus musculus. Briefly: Maximum rate of body weight loss after intravenous administration of 5.3 mg/kg of compound in mice; <0 indicates no weight loss. The format is functional.
For experiment [21], the system named is Mus musculus. Briefly: Maximum rate of body weight loss after peroral administration of 17.8 mg/kg of compound in mice. The format is functional. As to conditions: route oral.
Experiment [22] has as its system Mus musculus. Briefly: Maximum rate of body weight loss after intravenous administration of 11.9 mg/kg of compound in mice. The format is functional.
In experiment [23] the test system is Mus musculus. The experiment is described as follows: Number of mice died at 17.8 mg/kg of peroral dose among the total 6 mice tested. The format is functional. To be noted: route oral.
Experiment [24] has as its system Mus musculus. The experiment is described as follows: Number of mice died at 17.8 mg/kg of intravenous dose among the total 6 mice tested. The format is functional.
For experiment [25], the system named is Mus musculus. Briefly: Number of mice died at 7.9 mg/kg of peroral dose of compound among the total 6 mice tested. To be noted: route oral. The format is functional.
Experiment [26] relates to B16. Briefly: Effective dose of perorally administered compound against B16 melanoma BL6 cells implanted into mice. The format is functional. To be noted: Mus musculus, B16, po.
Experiment [27] deals with Mus musculus. Briefly: Effective dose of intravenously administered compound against B16 melanoma BL6 cells implanted into mice; range is 3.5-5.3. The format is functional. To be noted: B16, iv.
The test system of experiment [28] is PC-6. Briefly: Concentration that inhibited the growth of PC-6/VCR29-9 cells by 50% at 72 hr continuous exposure. To be noted: Homo sapiens, PC-6, 72 h. The format is functional.

For `CC(=O)O[C@@]12CO[C@@H]1CC[C@@]1(C)[C@@H]3O[C@H](CN4CCOCC4)O[C@@H]3C3=C(C)[C@@H](OC(=O)[C@H](O)[C@@H](NC(=O)OC(C)(C)C)C(C)(C)C)C[C@@](O)([C@@H](OCc4ccccc4)[C@@H]12)C3(C)C`, the Mortality in the experiment with Mus musculus [1] stood at 0; in the experiment with Mus musculus [8], 0; in the experiment with Mus musculus [11], 6; in the experiment with Mus musculus [13], 0; with Mus musculus [16] it was 0; in the experiment with Mus musculus [23], 0. For the same compound, the figures for the Mortality in the experiment on Mus musculus [24] and with Mus musculus [25] were 6 and 0, respectively. Moreover, the IR in the experiment on B16 [2] turned out to be 93.8%; with Mus musculus [4], 25.5%; with Mus musculus [10], 28.6%; in the experiment with Mus musculus [12], 71.9%; in the experiment on B16 [14] it was 63.4%; with B16 [18], 90.3%. Also, the BWLmax in the experiment with Mus musculus [3] was 0.4%; with Mus musculus [7], below 1.2%; in the experiment with Mus musculus [17] it was below 0%; with Mus musculus [20], below 0%; in the experiment on Mus musculus [21], 11.7%; in the experiment on Mus musculus [22], 10.5%. Also, the GI50 came to 0.85 ng/mL (≈ 0.976 nM) in the experiment with PC-6 [5]; 0.7 ng/mL (≈ 0.804 nM) with PC-6 [6]; 5.56 ng/mL (≈ 6.38 nM) in the experiment with PC-6 [9]; 0.13 ng/mL (≈ 0.149 nM) with PC-12; 0.34 ng/mL (≈ 0.39 nM) in the experiment with P388. For the same compound, the results for the ED50 in the experiment with Mus musculus [15] and with Mus musculus [19] were 17.8 mg/kg and 11.9 mg/kg, respectively.
Turning to `CC(=O)O[C@@]12CO[C@@H]1CC[C@@]1(C)[C@@H]3O[C@H](CN4CCOCC4)O[C@@H]3C3=C(C)[C@@H](OC(=O)[C@H](O)[C@@H](NC(=O)OC(C)(C)C)c4cscn4)C[C@@](O)([C@@H](OCc4ccccc4)[C@@H]12)C3(C)C`, the values for the ED50 in the experiment on B16 [26] and in the experiment with Mus musculus [27] were 7.9 mg/kg and 5.3 mg/kg, respectively. The GI50 with PC-6 [6] worked out at 0.65 ng/mL (≈ 0.724 nM); in the experiment with PC-6 [9], 9.13 ng/mL (≈ 10.2 nM); in the experiment on PC-12 it was 0.08 ng/mL (≈ 0.0891 nM); in the experiment on P388, 0.03 ng/mL (≈ 0.0334 nM); in the experiment on PC-6 [28], 1.02 ng/mL (≈ 1.14 nM).
